Structures are written as SMILES.

A short description of data set [1]: clinical. The conditions noted are these: human, in vivo.
The test system of data set [2] is CYP3A4 mRNA. Nature of the data set: CYP induction (mRNA, qPCR) in fresh human hepatocytes. It is filed as in vitro ADME. The procedure:
Fresh human hepatocytes were treated with culture medium with maribavir concentrations of 36 μM, 144 μM, and 480 μM.
Positive controls were 50 μM omeprazole (CYP1A2), 1 mM phenobarbital (CYP2B6), and 50 μM rifampicin (CYP3A).
Incubation was conducted at 37° C. for 72 hours, with daily replacement of medium with compound. Total RNA was isolated, and cDNA was synthesized from up to 1 μg of total isolated RNA. Analysis of CYP expression was performed using qPCR with CYP-specific probes.
Half maximal effective concentration (EC50) and maximum effect (Emax) values for CYP3A4 mRNA induction were further determined by a concentration-response curve in three donors with maribavir at a concentration between 0-100 μM.
In general terms: Quantitative PCR measures a nucleic acid by following its amplification.

Data set [3] can be described thus: Observed clinical interaction of maribavir with ketoconazole in healthy subjects. It is filed as in vivo, human. The conditions noted are these: for AUC(0-inf) / Cmax: human, in vivo, 400 mg. Here is the method:
A comparison of observed and predicted plasma concentrations of maribavir following a single oral dose of 400 mg administered in the absence of ketoconazole (a CYP3A4 inhibitor) and 1 hour after a single 400 mg dose of ketoconazole to healthy subjects was performed.

The nature of data set [4]: Observed clinical interaction of maribavir with rifampicin. The class given is in vivo, human. Particulars: maribavir 400 mg BID with/without rifampicin 600 mg QD. The procedure: A comparison of observed and predicted plasma concentrations of maribavir following multiple oral doses of 400 mg administered in the absence of rifampicin and during concurrent treatment with rifampicin was performed. Subjects took maribavir 400 mg BID on Days 1-3 (5 doses), then rifampicin 600 mg QD on Days 4 through 12, followed by both maribavir 400 mg (BID) and rifampicin 600 mg QD on Days 13 and 14, with final doses of maribavir and rifampicin on the morning of Day 15.

Broadly, the half-life is the time needed for the level to fall by half in the phase considered. Higher therefore signals slow decline. As usually defined, the EC50 is the concentration at which the effect is half-maximal. High values mean lower potency in that assay, low ones higher potency in that assay. The AUC(0-inf) is total exposure, with the tail of the curve extrapolated. A low value points to less exposure. One may read the Cmax as the highest concentration seen after dosing. For the molecule `CC(C)Nc1nc2cc(Cl)c(Cl)cc2n1[C@H]1O[C@@H](CO)[C@H](O)[C@@H]1O` [maribavir, (2S,3S,4R,5S)-2-(5,6-dichloro-2-(isopropylamino)-1H-benzo[d]imidazol-1-yl)-5-(hydroxymethyl)tetrahydrofuran-3,4-diol], in data set [1], the half-life is 5 to 7 h. In data set [1] (po), the CL renal is 0.85 mL/min, the “effect of crushing the tablet or antacids on bioavailability” value is listed as “wasn't affected”, the “effect of food on exposure” value is “unaffected” and the “time to peak concentrations” value fell in the range of 1 to 3 h. Moreover, the “fold increase in CYP3A4 mRNA induction” value in data set [2] (36 μM maribavir, human hepatocytes) was “greater than 14 fold”. Also, the EC50 at 72 h in data set [2] (human) was > 5 µM. For the same molecule, the “CYP3A4 mRNA induction, % of positive control (rifampicin) levels” value in data set [2] (human, hepatocytes, 72 h, 36 μM) is given as “greater than 30%”. In data set [3] (observed Geometric mean), the AUC(0-inf) was 183 µg·h/mL and the peak level (Cmax) was 21300 ng/mL. For the same molecule, in data set [3] (observed Mean), the AUC(0-inf) was determined as 194 µg·h/mL and the concentration peaked (Cmax) at 21800 ng/mL. In data set [3] (with/without ketoconazole), the “Ratio AUC(0-∞), observed Geometric mean” value is on record as 1.53; the “Ratio AUC(0-∞), observed Mean” value is on record as 1.55; the “Ratio Cmax, observed Geometric mean” value was 1.10; the “Ratio Cmax, observed Mean” value was found to be 1.12. In addition, in data set [4], the “Ratio AUC(0-12 h), observed Mean” value is recorded as 0.41; the “Ratio C12 h, observed Mean” value is recorded as 0.17; the “Ratio Cmax, observed Mean” value is 0.65.

For the origin of these results see patent US12447170B2, “Use of maribavir in treatment regimens” (priority 2021, dated 2025).
